# In paper PMC10002984, “Dual PTP1B/TC-PTP Inhibitors: Biological Evaluation of 3-(Hydroxymethyl)cinnoline-4(1H)-Ones” (International Journal of Molecular Sciences, 2023):
# Marks after values point to notes of the source that are not given here.
# Columns and labels:
# [1] = tested on: PTP1B and TC-PTP in the hypothalamic arcuate nucleus; set-up: method as in PMID 30525586; settings: administered to mice; cited from earlier work
# [2] = tested on: PTP1B; set-up: method as in doi:10.1134/S0022093018040038; settings: cited from earlier work
# [3] = tested on: rat hypothalamic neurons; set-up: method as in doi:10.1134/S0022093018040038; settings: cited from earlier work
# [4] = tested on: diet-induced obese rats; set-up: method as in doi:10.1134/S0022093022060187; settings: cited from earlier work
# [5] = biological target: T1, recombinant human PTP1B protein (Homo sapiens, UniProt P18031); assay: Phosphatase activity assay with DiFMUP, PTP1B inhibition; assay type: biochemical
# T1 construct: purchased Abcam ab51277
# T1 sequence (P18031 1-321 limits assumed): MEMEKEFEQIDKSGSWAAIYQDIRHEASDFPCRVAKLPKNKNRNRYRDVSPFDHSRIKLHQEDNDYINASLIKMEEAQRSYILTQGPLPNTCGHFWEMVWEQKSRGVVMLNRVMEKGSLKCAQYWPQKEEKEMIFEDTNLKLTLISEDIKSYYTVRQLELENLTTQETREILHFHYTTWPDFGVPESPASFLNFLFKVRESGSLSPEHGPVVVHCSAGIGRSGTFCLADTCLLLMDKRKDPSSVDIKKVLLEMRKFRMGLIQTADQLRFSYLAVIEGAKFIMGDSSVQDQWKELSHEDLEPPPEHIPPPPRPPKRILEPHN
# Experimental: (§1) The measurement of the activity of the phosphatases PTP1B and TC-PTP and their inhibition was carried out using 6,8-difluoro-4methylumbelliferyl phosphate (DiFMUP), as previously described. The stock solution of recombinant human PTP1B protein (#ab51277, Abcam, Cambridge, UK), at a concentration of 1 µg/µL, was prepared in 25 mM Tris–HCl (pH 7.5), 20% glycerol, 2 mM β-mercaptoethanol, 1 mm EDTA, and 1 mM DTT, and stored at −20 °C. Active human recombinant TC-PTP protein was purchased from Sigma-Aldrich (#SRP0218, Saint Louis, MO, USA) as the aqueous buffer solution at a concentration of 2.9 mg/mL, and aliquots were stored at −80 °C. The fluorogenic substrate DiFMUP (#D6567, Molecular Probes, Thermo Fisher Scientific, Waltham, MA, USA) was dissolved at a concentration of 10 mM in N,N-dimethylformamide and stored in aliquots at −20 °C. The 6,8-difluoro-7-hydroxy-4-methylcoumarin (DiFMU, #D6566, Molecular Probes, Thermo Fisher Scientific, Waltham, MA, USA) was used as a reference fluorescent standard. For the IC50 determination, the assay was carried out in black flat bottom 96-well plates using a reaction volume of 100 µL. The phosphatases (PTP1B or TC-PTP) were preincubated with the tested compounds (0.1–80 µM) in 50 mM HEPES (pH 6.9), 100 mM NaCl, 1 mM EDTA, 2 mM DTT, 0.1 mg/mL BSA for 5 min at 37 °C. The following concentrations of the compounds were studied: 0.1, 0.2, 0.5, 1, 2, 5, 10, 20, 40, and 80 μM. The reactions were initiated by the addition of the fluorogenic substrate DiFMUP and diluted in the assay buffer. Progress curves for hydrolysis reaction were obtained with 25 µM of DiFMUP for 80 ng/mL PTP1B, and 35 µM of DiFMUP for 80 ng/mL TC-PTP. Fluorescence excitation of hydrolyzed DiFMUP and the fluorescent standard DiFMU was monitored at 355 nm and emission was detected at 460 nm for 6–10 min at 30 s intervals in a Fluoroskan Ascent FL microplate reader (Thermo Electron Corporation, Vantaa, Finland). Initial velocities of the reactions were used to calculate the IC50 values using GraphPad Prism.
# (§2) The data on food intake, body weight, and biochemical parameters in rats, as well as the PCR data, were analyzed using the IBM SPSS Statistics 22 software (“IBM”, Armonk, NY, USA), and the results are presented as mean ± standard error of the mean (M ± SEM). All differences are considered significant at p < 0.05. The calculation of the IC50 values of the studied inhibitors for the initial velocities of enzymatic reactions (PTP1B, TC-PTP) was carried out using the nonlinear regression analysis with GraphPad Prism 8 (“GraphPad Software, Inc.”, Boston, MA, USA). The statistical analysis was carried out using the Wilcoxon test for pairwise comparison and Dunn’s test for multiple comparisons.
# [6] = biological target: T2, human recombinant TC-PTP protein (Homo sapiens, UniProt P17706); assay: Phosphatase activity assay with DiFMUP, TC-PTP inhibition; assay type: biochemical; settings: DiFMUP 35 µM, 80 ng/mL TC-PTP, compounds 0.1–80 μM; M ± SEM (n = 24); read-out: IC50 for the inhibitory effect on TC-PTP activity
# T2 construct: purchased Sigma-Aldrich SRP0218
# T2 sequence (P17706 1-415): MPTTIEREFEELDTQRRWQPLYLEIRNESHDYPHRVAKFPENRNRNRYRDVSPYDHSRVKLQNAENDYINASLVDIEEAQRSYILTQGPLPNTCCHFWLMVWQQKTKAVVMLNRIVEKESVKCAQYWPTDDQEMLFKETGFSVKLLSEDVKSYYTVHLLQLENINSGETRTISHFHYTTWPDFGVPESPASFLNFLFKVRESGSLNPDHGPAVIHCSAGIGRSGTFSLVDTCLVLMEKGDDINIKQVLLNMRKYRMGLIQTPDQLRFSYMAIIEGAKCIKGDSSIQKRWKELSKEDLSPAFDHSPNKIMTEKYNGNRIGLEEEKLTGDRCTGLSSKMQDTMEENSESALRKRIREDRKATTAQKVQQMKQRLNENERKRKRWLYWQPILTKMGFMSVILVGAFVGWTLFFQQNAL
# Experimental: as §1, §2
# [7] = tested on: male rats with HFD-induced obesity; assay: Blood glucose, insulin and leptin levels and insulin resistance index in obese rats; assay type: in vivo, male Wistar rats
# Experimental: (§3) Further, six groups were formed: control (Con, n = 10), obesity (Ob, n = 10), obese rats with five-day treatment with compounds 1 (Ob + 1, n = 5), 2 (Ob + 2, n = 5), 3 (Ob + 3, n = 10), and 4 (Ob + 4, n = 10). All compounds were administered in DMSO (300 µL) at a daily dose of 7 mg/kg (1 and 2), 8 mg/kg (3), and 10 mg/kg (4) (i.p.), based on the results of the preliminary experiments. The used doses of compounds 1–4, in terms of the number of moles of each compound per kg of animal body weight, were equivalent. Control and obese rats received DMSO in the same volumes (300 µL), instead of the tested compounds. During the five days of the experiment, all animals were transferred to standard food and had free access to food and drinking water. […] The test was carried out on the morning of the next day after the last (fifth) injection of the compounds or DMSO, after a 10 h fast. The rest of the animals (n = 5 in each group) were anesthetized and decapitated on the last day of the experiment. The blood and liver samples were taken to measure blood glucose and hormone levels and gene expression in the liver.
# The glucose levels in the blood obtained from the tail vein were measured using a glucometer (Life Scan Johnson & Johnson, Denmark) and the test strips “One Touch Ultra” (USA). The levels of insulin and leptin in rat serum were estimated with the “Rat Insulin ELISA” (Mercodia AB, Uppsala, Sweden) and “ELISA for Leptin, Rat” (Cloud-Clone Corporation, Houston, TX, USA) kits. The GTT was carried out using a single injection of glucose (2 g/kg, i.p.) after 10 h of fasting, as described earlier. The blood glucose levels were measured before (0 min) and 15, 30, 60, and 120 min after the glucose load.
# [8] = tested on: Shp1 gene; assay: Gene expression in the liver of obese rats (qPCR), Shp1 gene; assay type: in vivo, rat; settings: five-day treatment
# Experimental: as §3
# The total RNA was isolated from the liver samples of rats using the “ExtractRNA Reagent” (Evrogen, Moscow, Russia), and the samples containing 1 μg of RNA were transcribed to cDNA using the random oligodeoxynucleotide primers and the “MMLV RT kit” (Evrogen, Russia). The amplification procedure was carried out in the mixture containing 10 ng of reverse transcribed product, 0.4 μM of the forward and reverse primers, and the “qPCRmix-HS SYBR + LowROX kit” (Evrogen, Russia). The amplified signals were detected using the “Applied Biosystems® 7500 Real-Time PCR System” (Life Technologies, Carlsbad, CA, USA, Thermo Fisher Scientific Inc., USA). The primers that were used to assess the expression of genes encoding the phosphatase PTP1B, TC-PTP, and SHP1 and the insulin and leptin receptors are presented in Table 4. The obtained data were calculated with the delta–delta Ct method and expressed as a fold expression, relative to the corresponding control. The expression of the gene encoding 18S RNA was used as an endogenous control.
# [9] = blood, after five-day i.p. treatment, 7 mg/kg (1, 2), 8 mg/kg (3), 10 mg/kg (4), M ± SEM, n = 5
# [10] = blood, before treatment (baseline), M ± SEM, n = 5
structure (smiles),measurement,setting,value
CC1=C(O)C(=O)C=C2C1=CC=C1[C@@]2(C)CC[C@@]2(C)[C@@H]3C[C@](C)(C(=O)O)CC[C@]3(C)CC[C@]12C [Celastrol],"activity of both phosphatases (PTP1B, TC-PTP) in the hypothalamic arcuate nucleus",[1],reduced
same,food intake and body weights,[1],significantly reducing
"CCOC(=O)c1ccc2[nH]nc(CO)c(=O)c2c1 [PI4, ethyl 3-(hydroxymethyl)-4-oxo-1,4-dihydrocinnoline-6-carboxylate]",activity towards PTP1B,[2],inhibitory activity
same,"effect on components of the insulin and leptin signaling pathways (Akt, STAT3)",[3],stimulating effect
same,body and fat weights,[4],reduced
same,food intake,[4],suppressed
O=c1c(CO)n[nH]c2ccc(F)cc12 [Compound 2],IC50,"[5]; DiFMUP 25 µM, 80 ng/mL PTP1B, compounds 0.1–80 μM, M ± SEM (n = 24), read-out: IC50 for the inhibitory effect on PTP1B activity",6.01 ± 0.59 µM
same,selectivity for PTP1B compared to that for TC-PTP,[5]; from IC50 values of Table 1,5–7 fold
same,IC50,[6],42.8 ± 9.93 µM
same,"Glucose, After",[7]; [9],5.68 ± 0.09 ^a mM
same,"Insulin, After",[7]; [9],"1.19 ± 0.13 ^a,c ng/mL"
same,"Leptin, After",[7]; [9],"2.18 ± 0.22 ^a,c ng/mL"
same,"Glucose, Before",[7]; [10],5.82 ± 0.22 ^a mM
same,"Insulin, Before",[7]; [10],1.65 ± 0.17 ^a ng/mL
same,"Leptin, Before",[7]; [10],3.27 ± 0.38 ^a ng/mL
same,"IR (insulin resistance index), After","[7]; product of blood glucose and insulin concentrations, after five-day i.p. treatment, 7 mg/kg (1, 2), 8 mg/kg (3), 10 mg/kg (4)",6.79 ± 0.76 ^a arb.Units
same,"IR (insulin resistance index), Before","[7]; product of blood glucose and insulin concentrations, before treatment (baseline)",9.68 ± 1.27 ^a arb.Units
same,expression of the Shp1 gene in the liver,[8],increased
